{
  "source": "patent US4529720A",
  "about": "“Antibiotic from Streptomyces clavulicerus” (Beecham Group, p.l.c., priority 1974, dated 1985)",
  "key": {"[1]": {"test_system": "Klebsiella aerogenes 62", "assay": "Antibacterial synergism, microtitre MIC (Example 42)", "assay_type": "cell-based", "settings": "Table 8; method of Example 42"}, "[2]": {"test_system": "Klebsiella aerogenes E 70", "assay": "Antibacterial synergism, microtitre MIC (Example 42)", "assay_type": "cell-based", "settings": "Table 8; method of Example 42"}, "[3]": {"test_system": "Klebsiella aerogenes A", "assay": "Antibacterial synergism, microtitre MIC (Example 42)", "assay_type": "cell-based", "settings": "Table 8; method of Example 42"}, "[4]": {"assay": "Stability in human blood", "assay_type": "in vitro ADME"}, "[5]": {"test_system": "Staphylococcus aureus (Russell)", "assay": "Antibacterial synergism, microtitre MIC (Example 42)", "assay_type": "cell-based"}, "[6]": {"test_system": "Staphylococcus aureus", "assay": "Antibacterial synergism, microtitre MIC (Example 42)", "assay_type": "cell-based", "settings": "Table 6"}, "[7]": {"test_system": "Klebsiella aerogenes A", "assay": "Growth inhibition, alone and combined (description)", "assay_type": "cell-based", "settings": "5 μg/ml of clavulanic acid also present"}, "[8]": {"test_system": "bacteria", "assay": "Tests for antibacterial activity in broth (Example 32)", "assay_type": "cell-based", "settings": "against bacteria resistant to these antibiotics"}, "[9]": {"assay": "Hydrolysis of methyl ester in pH 7 phosphate buffer", "assay_type": "physicochemical", "settings": "1 mg/ml, 37° C., 0.05M phosphate buffer pH 7, followed over 2 hours", "protocol": "The reaction was followed by paper chromatography (bioautographic system). Using the butanol/ethanol/water system to follow the reaction over a period of 2 hours the zone of the methyl ester at Rf 0.79 decreased in size as the zone of clavulanic acid at Rf 0.12 increased."}},
  "note": "Counter-ions that a name gives are not always drawn.",
  "data": [
    {"smiles": "CC1(C)S[C@@H]2[C@H](NC(=O)[C@H](N)c3ccccc3)C(=O)N2[C@H]1C(=O)O", "note": "[Ampicillin, ampicillin]", "values": [
      {"measurement": "M.I.C., Ampicillin + 5 μg/ml of Benzyl Ester of clavulanic acid", "setting": "[1]", "value": 3.9},
      {"measurement": "M.I.C., Ampicillin + 5 μg/ml of Methyl Ester of clavulanic acid", "setting": "[1]", "value": 3.9},
      {"measurement": "M.I.C., Ampicillin + 5 μg/ml of Benzyl Ester of clavulanic acid", "setting": "[2]", "value": 3.9},
      {"measurement": "M.I.C., Ampicillin + 5 μg/ml of Methyl Ester of clavulanic acid", "setting": "[2]", "value": 3.9},
      {"measurement": "M.I.C., Ampicillin + 5 μg/ml of Benzyl Ester of clavulanic acid", "setting": "[3]", "value": 1.9},
      {"measurement": "M.I.C., Ampicillin + 5 μg/ml of Methyl Ester of clavulanic acid", "setting": "[3]", "value": 1.9}
    ]},
    {"smiles": "O=C(O)[C@H]1/C(=C/CO)O[C@@H]2CC(=O)N21", "note": "[clavulanic acid, Z-(2R,5R)-3-(β-hydroxyethylidene)-7-oxo-4-oxa-1-azabicyclo[3,2,0]heptane-2-carboxylic acid]", "values": [
      {"measurement": "stability in human blood", "setting": "[4]", "value": "high stability in human blood"}
    ]},
    {"smiles": "O=C(Cc1cccs1)N[C@@H]1C(=O)N2C(C(=O)[O-])=C(C[n+]3ccccc3)CS[C@H]12", "note": "[Cephaloridine, cephaloridine]", "values": [
      {"measurement": "Minimum Inhibitory Concentration of cephaloridine when synergist added at 1 μg/ml", "setting": "[5]; clavulanic acid sodium salt at 1 μg/ml, compared with <0.03 μg/ml at 5 μg/ml, footnote of Table 6", "value": "Same value"},
      {"measurement": "Minimum Inhibitory Concentrations, Cephaloridine in presence of 5 μg/ml clavulanic acid sodium salt", "setting": "[6]; in presence of 5 μg/ml clavulanic acid sodium salt", "value": 3.7, "unit": "µg/mL"}
    ]},
    {"smiles": "O=C(O)[C@H]1/C(=C/CO)O[C@@H]2CC(=O)N21", "note": "[clavulanic acid sodium salt, 3-(β-hydroxyethylidine)-7-oxo-4-oxa-1-azabicyclo[3,2,0]heptane-2-carboxylic acid sodium salt]", "values": [
      {"measurement": "Minimum Inhibitory Concentrations", "setting": "[5]; agent alone, Table 6", "value": 15, "unit": "µg/mL"},
      {"measurement": "Minimum Inhibitory Concentrations", "setting": "[6]; agent alone", "value": 62, "unit": "µg/mL"}
    ]},
    {"smiles": "CC1(C)S[C@@H]2[C@H](NC(=O)Cc3ccccc3)C(=O)N2[C@H]1C(=O)O", "note": "[Benzylpenicillin, benzylpenicillin]", "values": [
      {"measurement": "concentration of penicillin inhibiting growth when clavulanic acid is also present", "setting": "[7]", "value": "less than 12.5 μg/ml"}
    ]},
    {"smiles": "COC(=O)[C@H]1/C(=C/CO)O[C@@H]2CC(=O)N21", "note": "[clavulanic acid methyl ester]", "values": [
      {"measurement": "antibacterial synergism in combination with ampicillin or cephaloridine", "setting": "[8]", "value": "marked antibacterial synergism"},
      {"measurement": "hydrolysis of the ester to clavulanic acid", "setting": "[9]", "value": "Slow conversion of the ester to clavulanic acid"},
      {"measurement": "hydrolysis of the ester to clavulanic acid", "setting": "[9]; listed as methyl ester", "value": "slowly hydrolyse to clavulanic acid"}
    ]}
  ]
}
